Source: patent US12084680B2, “Methods for efficient derivation of human motor neurons from diverse spinal regions” (Wisconsin Alumni Research Foundation, priority 2016, dated 2024)

Experiments:
[1] = tested on: H9 ishcat2 hESC line; assay: Doxycycline-inducible shRNA knockdown of β-catenin (CTNNB1) during motor neuron differentiation; type: cell-based, human; conditions: H9 ishcat2, 3 days shRNA CTNNB1 knockdown upstream of CHIR 4 μM, day 3
Protocol: In the ventral neural tube, SHH signaling generates OLIG2^+ motor neuron progenitors that subsequently mature into post-mitotic ISL1^+ and/or HB9^+ motor neurons. To probe the role of Wnt/β-catenin signaling during this process in vitro, we utilized the H9 ishcat2 hESC line, which harbors a doxycycline-inducible shRNA against CTNNB1.
Similarly, we induced β-catenin knockdown while differentiating the hESCs into motor neurons via E6 neural induction with RA (1 μM), purmorphamine (PM, a small molecule agonist of sonic hedgehog signaling; 100 nM), and neurotrophic factor treatment, as previously described (FIG. 3A).
NKX6.1 is the earliest expressed marker in the motor neuron development cascade in vivo, so we examined its expression in response to Wnt/β-catenin, RA, and SHH signaling during hPSC motor neuron differentiation. H9 hESCs were differentiated in E6 medium for 2 days to initiate neural fate acquisition34 and then treated with combinations of RA, purmorphamine (PM, a small molecule agonist of SHH signaling), and CHIR for 24 h (FIG. 4A). […] Using the H9 ishcat2 line, we observed that CHIR-mediated induction of NKX6.1 was β-catenin-dependent, as the optimal 3 days of shRNA-mediated CTNNB1 knockdown upstream of CHIR treatment was required to maximally reduce NKX6.1 induction to 44±1% (FIG. 4E). The correlation between NKX6.1 knockdown and days of doxycycline treatment was presumably due to the time delay for shRNA synthesis and subsequent gene knockdown in Tet-on systems. […] Exogenously added WNT3A (200 ng/mL) could also induce NKX6.1 expression (60±14%) (FIG. 4G), providing further evidence for the involvement of Wnt/β-catenin signaling in this process. In contrast, simultaneous treatment with CHIR and BMP4 (200 ng/mL), a dorsal patterning factor, reduced the expression of NKX6.1 from 91±1% to 68±2% (FIG. 4H).
hESCs were maintained on Matrigel (BD Biosciences) in E8 medium but with 10-fold lower insulin concentration (2 mg/L). Cell lines used in this study were H9 hESCs (passage 25-45) and H9 ishcat2 hESCs (passage 35-45). […]

[2] = tested on: GLI1, GLI2, GLI3; assay: qPCR of GLI transcription factors in day 6 cultures; type: cell-based, human; conditions: 6 μM CHIR maintained during RA and PM/SHH exposure, day 6, versus 0 μM CHIR
Protocol: To begin, we sequentially differentiated H9 hESCs in E6 media for 1 day, and FGF8b (200 ng/mL) for 1 day, and FGF8b and CHIR (3 μM) for 2 days to generate cervical neuromesoderm (FIGS. 5A-5B). Then, we screened the effects of CHIR, PM, and SHH treatment on NKX6.1^+/PAX6^+/OLIG2^+ motor neuron progenitor induction while transitioning to media containing 1 μM RA (FIGS. 5A-5D). Prior to the addition of RA, NKX6.1 was expressed in the cervical neuromesodermal state at day 4 (80±18% NKX6.1^+; data not shown), likely due to the CHIR-induced Wnt/β-catenin signaling (FIGS. 4A-4H). Transitioning the neuromesodermal progenitors to RA-containing media for 2 days induced HOXB4^+/HOXC6^+/HOXC9^−/HOXD10^−/PAX6^+ cervical neuroectoderm in all conditions (FIGS. 5B-5C), as expected. However, without co-activation of SHH signaling by PM or SHH, NKX6.1 expression was quickly lost by day 6 (97±1% PAX6^+, 17±3% NKX6.1^+) (FIG. 5C). […] To bolster this claim, we also analyzed the abundance of full-length GLI3 versus its truncated repressor form by western blot. […] Thus, Wnt/β-catenin signaling is necessary to induce ventral identity, but its continuous activation during OLIG2 induction by SHH signaling is detrimental to motor neuron differentiation, possibly due to activation of the GLI3 repressor.
Thoracic identity was reached after an additional 24 h. Then, to reach the lumbosacral level, cells were given 30 ng/ml GDF11 and 1 μM DM for an additional 48 h. For neuroectoderm induction and generation of OLIG2^+ progenitors, FGF8b was removed at the designated time points and the concentration of CHIR was increased for 6 h as described in the text, followed by a transition to media containing RA, PM, and SHH for a period of 48 h. […]

Cc1c[nH]c(-c2cnc(NCCNc3ccc(C#N)cn3)nc2-c2ccc(Cl)cc2Cl)n1 [CHIR, CHIR99021]
NKX6.1 induction (flow cytometry) [1]: 44±1% | decrease in GLI1 expression (qPCR) [2]: > 8 fold | decrease in GLI2 expression (qPCR) [2]: > 4 fold | increase in GLI3 expression (qPCR) [2]: ~2 fold
